# Source: patent publication US20050106195A1, “N-octanoyl amino acid composition for slimming the human body” (priority 2003, published 2005)
# Tested on: human adipocytes
# Test: In vitro lipolytic activity: free fatty acid release from isolated human adipocytes in suspension
# Type: cell-based
# Settings: 2 h at 37° C.; for Free fatty acid concentration: mean of five assays, control 11.54 ± 2.71
# Description: This is because triglycerides are stored in the adipocytes and constitute the fat reserve. For this reserve to diminish, which is the desired aim when slimming products are used, the triglycerides must be hydrolysed so that the fatty acids can be removed from the cell. Hydrolysis of the triglycerides to nonesterified fatty acids and glycerol is called lipolysis.
# The method described consists in incubating the products in the presence of human adipocytes in suspension, followed by the measurement of the nonesterified fatty acid level in the adipocyte incubation medium. The free fatty acid level thus reflects the hydrolysis of the triglycerides present in the adipocytes.
# The test is carried out using human adipocytes isolated and prepared as a cellular suspension. The adipocytes are isolated from the subcutaneous abdominal adipose tissue recovered during plastic surgery operations (abdominal plastic surgery operations) performed on women. The cells are isolated from fresh tissue. The adipose tissue is isolated and dissociated by the action of a collagenase (SIGMA™, 1 mg/ml, 30 minutes at 37° C., gentle stirring). Collagenase digests the connective tissue present in the adipose tissue. After digestion, the cells are filtered and washed in an appropriate culture medium containing MEM medium free of phenol red, free of glutamine (SIGMA)+2.2 mg/ml of sodium bicarbonate (GIBCO)+50 IU of penicillin (BIOWHITTAKER™)+50 μg/ml of streptomycin (BIOWHITTAKER™)+1% (v/v) of L-glutamine (BIOWHITTAKER™)+0.5% of lipid-free serum albumin (SIGMA™). The adipocyte suspension is used immediately after its preparation.
# The test products are diluted in the adipocyte culture medium. They are incubated with the cells in suspension for two hours at 37° C. (250 μl of product+250 μl of adipocyte suspension).
# After the incubation, the cell lysis is checked visually by the presence of a lipid layer at the surface of the cellular suspension. The supernatant media are collected. The free fatty acids are assayed by spectrophotometry using a commercial kit (NEFA™ C kit, WAKO), with reference to a fatty acid calibration series. The lypolytic activity of the products is evaluated relative to a control group incubated in the presence of adipocytes and in the absence of product. The reactivity of the adipocytes is systematically checked for the measurement of the lipolytic activity of the reference products, caffeine (1,3,7-trimethyl-xanthine) and theophylline (1,3-dimethyl-2,6-dihydroxy-purine). Five assays are performed for each of the test products. The lipolytic activity of LIPACIDE™ C8G, which contains active material 100% N-octanoylglycine, was thus evaluated.
# [1] = incubation concentration 0.0001 wt %/volume
# [2] = incubation concentration 0.0005 wt %/volume
# [3] = incubation concentration 0.0010 wt %/volume
# [4] = incubation concentration 0.0019 wt %/volume
SMILES,Lipolytic activity (compared with the control = 100) [1],Free fatty acid concentration [1],Lipolytic activity (compared with the control = 100) [2],Free fatty acid concentration [2],Lipolytic activity (compared with the control = 100) [3],Free fatty acid concentration [3],Lipolytic activity (compared with the control = 100) [4],Free fatty acid concentration [4]
"CCCCCCCC(=O)NCC(=O)O [LIPACIDE ™ C8G, N-octanoylglycine]",206,23.83 ± 5.11 µM,219,25.30 ± 2.70 µM,223,25.75 ± 0.86 µM,–,–
"Cn1c(=O)c2c(ncn2C)n(C)c1=O [Caffeine, 1,3,7-trimethyl-xanthine, reference compound]",–,–,–,–,–,–,131,15.10 ± 4.11 µM
